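Results reflect a 48-hour exposure of cells in 96-well plates to compound at five concentrations. Abbreviation: GI50, concentration required for 50% inhibition of growth.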 Calls of active or inactive are those of the source. Rule as the data show it: active = GI50 up to about 1.1 µM and inactive = higher.
How the values were obtained:
Experiment in all cases: NCI tumour cell line growth inhibition, 48 h
[1] = system: HOP-92
[2] = system: OVCAR-8
[3] = system: SK-OV-3
[4] = system: SK-MEL-5
[5] = system: K562
[6] = system: CCRF-CEM
[7] = system: NCI-H226
[8] = system: RPMI-8226
[9] = system: Malme-3M
[10] = system: SF-268
[11] = system: U-251
[12] = system: IGROV-1
[13] = system: SNB-19
[14] = system: OVCAR-3
[15] = system: NCI-H23
[16] = system: OVCAR-4
[17] = system: MDA-N
[18] = system: SK-MEL-28
[19] = system: RXF 393
[20] = system: SNB-75

Measured: GI50

Clc1ccccc1/C=c1\nc(-c2ccccc2)n2c1nc1ccccc12
inactive: [1] 40.7 µM | [2] 31.2 µM | [3] 25.3 µM | [4] > 100 µM | [5] > 100 µM | [6] > 100 µM | [7] > 100 µM | [8] 84.3 µM | [9] > 100 µM | [10] 19.8 µM | [11] 21.7 µM | [12] 27.2 µM | [13] 40.3 µM | [14] > 100 µM | [15] 17.8 µM | [16] > 100 µM | [17] 30.6 µM | [18] > 100 µM | [19] 18.2 µM

CC(=O)C1COC(O)C1C (stereo not drawn)
inactive: [1] 27.2 µM | [2] 19.5 µM | [3] 31 µM | [4] 16 µM | [5] 26.5 µM | [6] 13.5 µM | [7] 21.4 µM | [8] 19.7 µM | [10] 17.3 µM | [11] 23.4 µM | [12] 17.2 µM | [20] 23.3 µM | [13] 31.1 µM | [14] 19 µM | [15] 16.1 µM | [17] 21.3 µM | [18] 19.5 µM

c1cc(C[S+]2CCCC2)oc1C[S+]1CCCC1
inactive: [2] > 100 µM | [3] > 100 µM | [4] > 100 µM | [5] > 100 µM | [6] > 100 µM | [9] > 100 µM | [10] > 100 µM | [11] > 100 µM | [12] > 100 µM | [20] > 100 µM | [13] > 100 µM | [14] > 100 µM | [15] > 100 µM | [16] > 100 µM | [17] > 100 µM | [18] > 100 µM | [19] > 100 µM

O=C1c2ccccc2-c2c1c1ccccc1c(=O)n2Cc1ccco1
inactive: [1] > 100 µM | [2] > 100 µM | [3] > 100 µM | [4] > 100 µM | [5] > 100 µM | [6] > 100 µM | [7] > 100 µM | [8] > 100 µM | [9] > 100 µM | [10] > 100 µM | [11] > 100 µM | [12] > 100 µM | [20] 48.6 µM | [14] > 100 µM | [15] > 100 µM | [17] > 100 µM | [18] > 100 µM

CN1N=C(c2ccncc2)OC1c1ccc(Cl)c(Cl)c1 (stereo not drawn)
inactive: [1] > 100 µM | [2] > 100 µM | [3] > 100 µM | [4] > 100 µM | [5] 61.8 µM | [6] 71.6 µM | [7] > 100 µM | [8] > 100 µM | [9] > 100 µM | [10] > 100 µM | [11] > 100 µM | [12] > 100 µM | [13] > 100 µM | [14] 72.4 µM | [15] > 100 µM | [16] > 100 µM | [17] > 100 µM | [18] > 100 µM | [19] 74.1 µM

O=C1c2ccccc2C(=O)N1CCc1ncc[nH]1
inactive: [1] > 100 µM | [2] > 100 µM | [4] > 100 µM | [5] > 100 µM | [6] > 100 µM | [8] > 100 µM | [10] > 100 µM | [12] > 100 µM | [13] > 100 µM | [14] > 100 µM | [15] > 100 µM | [17] > 100 µM | [18] > 100 µM

CC(C)(C)C(=O)O[C@H]1C=C[C@@H](O)[C@@H]2[C@H]1[C@@H]1C=C[C@H]2C1
inactive: [1] 22.2 µM | [2] 19 µM | [3] 25.2 µM | [5] 31.9 µM | [6] 9.35 µM | [8] 17.1 µM | [9] > 10 µM | [10] 27.9 µM | [11] 28.8 µM | [12] 3.06 µM | [20] 29.9 µM | [13] 70 µM | [14] 19.7 µM | [15] 12.1 µM | [16] 21.2 µM | [17] 19.3 µM | [18] 18.5 µM

CC#C[C@@]1(O)CCCCC1O (stereo partly drawn)
inactive: [1] > 100 µM | [2] > 100 µM | [3] > 100 µM | [4] > 100 µM | [5] > 100 µM | [6] > 100 µM | [7] > 100 µM | [8] > 100 µM | [9] > 100 µM | [10] > 100 µM | [11] > 100 µM | [12] > 100 µM | [20] 66.8 µM | [13] > 100 µM | [14] > 100 µM | [15] > 100 µM | [16] > 100 µM | [18] > 100 µM | [19] > 100 µM
